Where “and” joins values, the source holds several entries; their conditions need not be identical. Equal values may be shown once.
Columns and labels:
Format in all cases: biochemical
[1] = Colorimetric Granzyme B activity assay with Ac-IEPD-pNA (absorbance at 405 nm)
Method: GrB-H6 activity was measured using the following mix: 500 μl buffer, 2 μl 100 mM Ac-IEPD-pNA, and 5 μl GrB-H6.
Recombinant self-activating human Granzyme B derivatives IEPD-GrB-H6 and IEAD-GrB-H6 were produced as described in Example 2 by using the expression vectors pT7-IEPD-GrB-H6 and pT7-IEAD-GrB-H6 described in Example 1. The IEAD-GrB-H6 and IEPD-GrB-H6 proteins were eluted from the SP Sepharose columns and stored at 4° C. for 2 days before the activity of the respective top fractions were determined by using a colorimetric assay. For this purpose the following was mixed: 500 μl buffer (100 mM HEPES pH 7.5), 2 μl 100 mM Ac-IEPD-pNA, and 5 μl protein solution. The change in absorption was then determined at 405 nm during 3 min. The activity was further determined after additional incubation for 1 and 2 days at 4° C.
The activity of the activated and purified GrB-H6 was measured in different buffers using the Ac-IEPD-pNA substrate: 500 μl buffer, 2 μl 100 mM Ac-IEPD-pNA, and 5 μl GrB-H6. The ΔOD405/min was calculated from the first 0.75 min unless otherwise noted.

[2] = Specificity on chromogenic substrates; conditions: 400 μM substrate, 1 μg protease, 100 mM HEPES pH 7.75; normalized to Ac-IEPD-pNA = 100%
Method: The activity assay was carried out in 500 μl 100 mM HEPES pH 7.75 with a substrate concentration of 400 μM and 1 μg protease added for each measurement. All measurements were done at 23° C. and in triplicate, and the activities obtained were normalized by setting the activity measured on Ac-IEPD-pNA to 100%.
The specificity of both the GrB-H6 and the GrB-H6 C228F protease was examined using the chromogenic substrates Ac-LEED-pNA, Ac-VEID-pNA, Ac-YVAD-pNA, and Ac-DEVD-pNA, in addition to the Ac-IEPD-pNA substrate applied in Example 4. The activity assay was again carried out in 500 μl 100 mM HEPES pH 7.75 with a substrate concentration of 400 μM. For each measurement 1 μg of protease was added to the assay cuvette. All measurements were done in triplicate, and the activities obtained were normalized by setting the activity measured on Ac-IEPD-pNA to 100%.

[3] = Steady state kinetic parameters KM and kcat, Lineweaver-Burk plot; conditions: 100 mM HEPES pH 7.75; 20 nM protease
Method: To estimate the steady state kinetic parameters KM and kcat, the same colorimetric assay as described above was used with a total volume of 500 μl in the assay cuvette. The assay buffer was 100 mM HEPES pH 7.75, and both GrB-H6 and GrB-H6 C228F were used in a concentration of 20 nM in each measurement. To construct a Lineweaver-Burk plot the following substrate concentrations were used: 5, 40, 150, 300, and 600 μM.

GrB-H6: activated human Granzyme B with C-terminal hexa-His tag, from cleavage/activation of pro-IEGR-GrB-H6 by FXa
Activity (ΔOD405/min) ([1]; 50 mM NaCl, 25 mM Tris-HCl pH 7.4, 0.5 μg GrB-H6): 0.1948 ΔOD405/min | Activity (ΔOD405/min) ([1]; 100 mM HEPES pH 7.2, 0.5 μg GrB-H6): 0.1970 ΔOD405/min | Activity (ΔOD405/min) ([1]; 100 mM HEPES pH 7.4 + 50 mM KCl, 0.5 μg GrB-H6): 0.2167 ΔOD405/min | Activity (ΔOD405/min) ([1]; 100 mM HEPES pH 7.4 + 50 mM NaCl, 0.5 μg GrB-H6): 0.1993 ΔOD405/min and 0.1938 ΔOD405/min | Activity (ΔOD405/min) ([1]; 100 mM HEPES pH 7.4, 0.5 μg GrB-H6): 0.2273 ΔOD405/min and 0.2328 ΔOD405/min | Activity (ΔOD405/min) ([1]; 100 mM HEPES pH 7.5 + 5 mM Ca^2+, 0.5 μg GrB-H6): 0.2425 ΔOD405/min | Activity (ΔOD405/min) ([1]; 100 mM HEPES pH 7.5, 0.5 μg GrB-H6): 0.2350 ΔOD405/min | Activity (ΔOD405/min) ([1]; 100 mM KCl, 50 mM Tris-HCl pH 7.4, 0.5 μg GrB-H6): 0.1662 ΔOD405/min | Activity (ΔOD405/min) ([1]; 100 mM NaCl, 50 mM Tris-HCl pH 7.4, 0.5 μg GrB-H6): 0.1682 ΔOD405/min | GrB activity, before FXa removal ([1]; 100 mM NaCl, 50 mM Tris-HCl pH 8.0): 0.1401 ΔOD405/min | GrB activity, after FXa removal ([1]; 100 mM NaCl, 50 mM Tris-HCl pH 8.0, top fraction of SP Sepharose eluate): 0.2213 ΔOD405/min | Activity (ΔOD405/min) ([1]; TN pH 7.0, 1 μg GrB-H6): 0.2794 ΔOD405/min | Activity (ΔOD405/min) ([1]; TN pH 7.4 + 5 mM Ca^2+, 0.5 μg GrB-H6): 0.1401 ΔOD405/min | Activity (ΔOD405/min) ([1]; TN pH 7.4 + 5 mM Mg^2+, 0.5 μg GrB-H6): 0.1491 ΔOD405/min | Activity (ΔOD405/min) ([1]; TN pH 7.4 + 0.1% TWEEN20, 0.2 μg GrB-H6, (3 min)): 0.0303 (3 min) ΔOD405/min | Activity (ΔOD405/min) ([1]; TN pH 7.4 + 0.1% TWEEN20, 0.5 μg GrB-H6): 0.0887 ΔOD405/min | Activity (ΔOD405/min) ([1]; TN pH 7.4, 0.2 μg GrB-H6, (3 min)): 0.0245 (3 min) ΔOD405/min | Activity (ΔOD405/min) ([1]; TN pH 7.4, 0.5 μg GrB-H6): 0.0835 ΔOD405/min and 0.1082 ΔOD405/min | Activity (ΔOD405/min) ([1]; TN pH 7.4, 1 μg GrB-H6): 0.2624 ΔOD405/min and 0.2930 ΔOD405/min | Activity (ΔOD405/min) ([1]; TN pH 8.1, 1 μg GrB-H6, (1 min)): 0.2213 (1 min) ΔOD405/min | best buffer for activity of the buffers evaluated ([1]; buffers of Table 6): 100 mM HEPES pH 7.4-7.5 | specificity on chromogenic substrates [2]: at least as specific as the GrB-H6 C228F protease | Km [3]: 66.9 µM | kcat [3]: 5.03 s⁻¹
